Results from US20100061945A1, “Use Of Quinoa Extract As Cosmetic And Pharmaceutic Slimming Agent And/Or As An Agent Preventing The Formation Of New Fats In The Human Body” (Societe D'Exploitation Des Produits Pour Les Indus tries …, priority 2006, published 2010).

Assays:
normal human adipocytes = test: Lipolytic activity in isolated normal human adipocytes by assaying the free fatty acids; format: cell-based; details: incubation concentration 0.0001 weight % DE, two hours at 37° C.
[1] = tested on: murine preadipocytes (3T3-L1 line); test: Differentiation of preadipocytes to adipocytes, G6PDH activity assay; format: cell-based; details: incubation concentration 0.0000001 weight % DE (1 ng/ml)
Procedure: 1—Principle of the Method • The method described consists in incubating the product in the presence of murine preadipocytes (3T3-L1 line) which, under the influence of an appropriate culture medium, differentiate into mature adipocytes capable of storing triglycerides. The differentiation is evaluated by an enzymatic assay of Glucose-6-phosphate dehydrogenase (G6PDH). This enzyme, which is located within the adipocytes, allows the conversion of Glucose-6-phosphate to Gluconate-6-phosphate in the presence of Nicotinamide Adenine Dinucleotide Phosphate (NAPD) and leads to the formation of Hydrogenated Nicotinamide Adenine Dinucleotide Phosphate (NAPDH) used for the neosynthesis of fatty acids. It is present in the mature adipocytes. The formation of NAPDH is monitored by absorption spectrophotometry at 340 nanometers.
2—Experimental Protocol • (i)—Cellular model: The test is carried out using murine preadipocytes (3T3-L1 cell line) cultured in a monolayer until confluence is obtained. […] The G6PDH activity of the cellular lyzates is measured by adding its substrate, D-glucose 6P (1 mmol) and its cofactor NADP (8 mmol). The kinetics of appearance of NAPDH is measured by spectrophotometry at 340 nm for 2 minutes. […]

Cn1c(=O)c2c(ncn2C)n(C)c1=O [Caffeine, 1,3,7-trimethyl-xanthine]
Lipolytic activity (compared with the control = 100) (normal human adipocytes): 154 | Free fatty acid concentration (normal human adipocytes; mean of five assays, control 16 ± 3): 25 ± 4 µmol

TNFα
% inhibition (differentiation of the preadipocytes) [1]: 43% | G6PDH ([1]; differentiated control 0.46 ± 0.03, undifferentiated control 0.03 ± 0.002): 0.005 ± 0.01 U/ml
